Data as given in US20250179045A1, “LPAR1 ANTAGONISTS AND USES THEREOF” (Contineum Therapeutics, Inc., priority 2021, published 2025).

Biological target: human LPA1 (Homo sapiens, UniProt Q92633)
Experiment: In vitro functional assay of lysophosphatidic acid receptor 1 activity (calcium flux)
Format: cell-based
Conditions: B103 cells stably expressing human LPA1; Fluo-4 NW calcium flux after lysophosphatidic acid (18:1) at EC80; compounds 100 pM to 10 μM; read-out: LPA1 IC50
In short: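 B103 cells stably expressing human LPA1 plated onto compound for 24 h at 37 °C, loaded with Fluo-4 NW dye, re-exposed to compound (30 min 37 °C plus 30 min room temp).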

Chain of human LPA1 (Q92633 whole entry): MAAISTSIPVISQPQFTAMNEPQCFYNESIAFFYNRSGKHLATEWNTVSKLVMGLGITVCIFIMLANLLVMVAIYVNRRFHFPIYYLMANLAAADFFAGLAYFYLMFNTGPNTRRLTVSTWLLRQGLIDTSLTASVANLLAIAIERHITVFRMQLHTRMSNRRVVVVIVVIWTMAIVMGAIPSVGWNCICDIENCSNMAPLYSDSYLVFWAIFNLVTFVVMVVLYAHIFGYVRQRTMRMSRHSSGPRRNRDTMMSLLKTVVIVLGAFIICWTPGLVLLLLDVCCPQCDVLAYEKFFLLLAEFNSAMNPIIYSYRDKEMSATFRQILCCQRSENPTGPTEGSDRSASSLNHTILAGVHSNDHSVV

Compound	IC50
COc1cc(OC(F)F)c(NC(=O)C2(c3ccccc3C(C)C)CC(=O)N(C)C2)cn1 (stereo not drawn) [Example 5, N-(4-(difluoromethoxy)-6-methoxypyridin-3-yl)-3-(2-isopropylphenyl)-1-methyl-5-oxopyrrolidine-3-carboxamide]	> 1000 nM
Cc1ccc(NC(=O)C2(c3ccccc3C(C)C)CC(F)C2)c(OC(F)F)n1 (stereo not drawn) [Example 62, N-(2-(difluoromethoxy)-6-methylpyridin-3-yl)-3-fluoro-1-(2-isopropylphenyl)cyclobutane-1-carboxamide]	100 to 1000 nM
COc1cnc(NC(=O)C2(c3ccccc3C(C)C)COC2)c(OC(F)F)c1 [Example 35, N-(3-(difluoromethoxy)-5-methoxypyridin-2-yl)-3-(2-isopropylphenyl)oxetane-3-carboxamide]	100 to 1000 nM
Cc1ccc(NC(=O)C2(c3ccccc3C(C)C)CC(CC#N)C2)c(OC(F)F)n1 (mixture of isomers) [Example 63, 3-(cyanomethyl)-N-(2-(difluoromethoxy)-6-methylpyridin-3-yl)-1-(2-isopropylphenyl)cyclobutane-1-carboxamide]	100 to 1000 nM
COc1ccc(NC(=O)C2(c3ccccc3C(C)C)COC2)c(OC)n1 [Example 18, N-(2,6-dimethoxypyridin-3-yl)-3-(2-isopropylphenyl)oxetane-3-carboxamide]	100 to 1000 nM
COc1ccc(NC(=O)C2(c3ccccc3C(C)C)CNC(=O)C2)c(OC)n1 (stereo not drawn) [Example 103, N-(2,6-dimethoxypyridin-3-yl)-3-(2-isopropylphenyl)-5-oxopyrrolidine-3-carboxamide]	100 to 1000 nM
COc1nc(Cl)ccc1NC(=O)C1(c2ccccc2C(C)C)COC1 [Example 28, N-(6-chloro-2-methoxypyridin-3-yl)-3-(2-isopropylphenyl)oxetane-3-carboxamide]	> 1000 nM
CC(C)c1ccccc1C1(C(=O)Nc2ncc(Cl)cc2OC(F)F)CNC(=O)C1 (stereo not drawn) [Example 10, N-(5-chloro-3-(difluoromethoxy)pyridin-2-yl)-3-(2-isopropylphenyl)-5-oxopyrrolidine-3-carboxamide]	10 to 100 nM
Cc1ccc(NC(=O)C2(c3ccccc3C(C)C)CC(C(=O)O)C2)c(OC(F)F)n1 (stereo not drawn) [Example 65, 3-((2-(difluoromethoxy)-6-methylpyridin-3-yl)carbamoyl)-3-(2-isopropylphenyl)cyclobutane-1-carboxylic acid]	10 to 100 nM
Cc1ccc(NC(=O)C2(c3ccccc3C(C)C)CCC2)c(OC(F)F)n1 [Example 73, N-(2-(difluoromethoxy)-6-methylpyridin-3-yl)-1-(2-isopropylphenyl)cyclobutane-1-carboxamide]	> 1000 nM
CC(C)c1ccccc1C1(C(=O)Nc2ccc(F)cc2OC(F)F)CC(=O)N(C)C1 (stereo not drawn) [Example 88, N-(2-(difluoromethoxy)-4-fluorophenyl)-3-(2-isopropylphenyl)-1-methyl-5-oxopyrrolidine-3-carboxamide]	100 to 1000 nM
CC(C)c1ccccc1C1(C(=O)Nc2ccc(Cl)cn2)CC(O)(C(F)(F)C(=O)O)C1 (single isomer, unassigned) [Example 93-isomer A, 2-(3-((5-chloropyridin-2-yl)carbamoyl)-1-hydroxy-3-(2-isopropylphenyl)cyclobutyl)-2,2-difluoroacetic acid]	10 to 100 nM
COc1cc(Cl)ncc1NC(=O)C1(c2ccccc2C(C)C)CC(O)(C(F)(F)C(=O)O)C1 (stereo not drawn) [Example 56, 2-(3-((6-chloro-4-methoxypyridin-3-yl)carbamoyl)-1-hydroxy-3-(2-isopropylphenyl)cyclobutyl)-2,2-difluoroacetic acid]	10 to 100 nM
Cc1ccc(NC(=O)C2(c3ccccc3C(C)C)CC(NC3CC3)C2)c(OC(F)F)n1 (single isomer, unassigned) [Example 40-isomer B, 3-(cyclopropylamino)-N-(2-(difluoromethoxy)-6-methylpyridin-3-yl)-1-(2-isopropylphenyl)cyclobutane-1-carboxamide]	100 to 1000 nM
Cc1cc(OC(F)F)c(NC(=O)C2(c3ccccc3C(C)C)CC(O)(C(F)(F)C(=O)O)C2)cn1 (single isomer, unassigned) [Example 94-isomer A, 2-(3-((4-(difluoromethoxy)-6-methylpyridin-3-yl)carbamoyl)-1-hydroxy-3-(2-isopropylphenyl)cyclobutyl)-2,2-difluoroacetic acid]	100 to 1000 nM
COc1ccc(NC(=O)C2(c3ccccc3C(C)C)CCC(C#N)CC2)c(OC(F)F)n1 (mixture of isomers) [Example 95, 4-cyano-N-(2-(difluoromethoxy)-6-methoxypyridin-3-yl)-1-(2-isopropylphenyl)cyclohexane-1-carboxamide]	10 to 100 nM
Cc1ccc(NC(=O)C2(c3ccccc3C(C)C)CC(S(N)(=O)=O)C2)c(OC(F)F)n1 (mixture of isomers) [Example 69, N-(2-(difluoromethoxy)-6-methylpyridin-3-yl)-1-(2-isopropylphenyl)-3-sulfamoylcyclobutane-1-carboxamide]	10 to 100 nM

Compound	IC50
COc1cc(OC(F)F)c(NC(=O)C2(c3ccccc3C(C)C)COC2)cn1 [Example 25, N-(4-(difluoromethoxy)-6-methoxypyridin-3-yl)-3-(2-isopropylphenyl)oxetane-3-carboxamide]	100 to 1000 nM
Cc1cc(OC(F)F)c(NC(=O)C2(c3ccccc3C(C)C)CC(O)(C(F)(F)C(=O)O)C2)cn1 (single isomer, unassigned) [Example 94-isomer B, 2-(3-((4-(difluoromethoxy)-6-methylpyridin-3-yl)carbamoyl)-1-hydroxy-3-(2-isopropylphenyl)cyclobutyl)-2,2-difluoroacetic acid]	10 to 100 nM
COc1ccc(NC(=O)C2(c3ccccc3C(C)C)CC(CC(=O)O)C2)c(OC(F)F)n1 (stereo not drawn) [Example 46, 2-(3-((2-(difluoromethoxy)-6-methoxypyridin-3-yl)carbamoyl)-3-(2-isopropylphenyl)cyclobutyl)acetic acid]	< 10 nM
Cc1ccc(NC(=O)C2(c3ccccc3C(C)C)CC(=O)N(C)C2)c(OC(F)F)n1 (stereo not drawn) [Example 3, N-(2-(difluoromethoxy)-6-methylpyridin-3-yl)-3-(2-isopropylphenyl)-1-methyl-5-oxopyrrolidine-3-carboxamide]	10 to 100 nM
CC(C)c1ccccc1C1(C(=O)Nc2ncc(Cl)cc2OC(F)F)CC(O)(C(F)(F)C(=O)O)C1 (single isomer, unassigned) [Example 55-isomer B, 2-(3-((5-chloro-3-(difluoromethoxy)pyridin-2-yl)carbamoyl)-1-hydroxy-3-(2-isopropylphenyl)cyclobutyl)-2,2-difluoroacetic acid]	10 to 100 nM
COc1ccc(NC(=O)C2(c3ccccc3C(C)C)CC(O)(C(F)(F)C(=O)O)C2)c(OC(F)F)n1 (single isomer, unassigned) [Example 54-isomer B, 2-(3-((2-(difluoromethoxy)-6-methoxypyridin-3-yl)carbamoyl)-1-hydroxy-3-(2-isopropylphenyl)cyclobutyl)-2,2-difluoroacetic acid]	10 to 100 nM
Cc1ccc(NC(=O)C2(c3ccccc3C(C)C)CC(N3CCC3)C2)c(OC(F)F)n1 (stereo not drawn) [Example 41, 3-(azetidin-1-yl)-N-(2-(difluoromethoxy)-6-methylpyridin-3-yl)-1-(2-isopropylphenyl)cyclobutane-1-carboxamide]	> 1000 nM
CC(C)c1ccccc1C1(C(=O)Nc2ccc(OC(F)F)nc2Cl)CNC(=O)C1 (stereo not drawn) [Example 107, N-(2-chloro-6-(difluoromethoxy)pyridin-3-yl)-3-(2-isopropylphenyl)-5-oxopyrrolidine-3-carboxamide]	> 1000 nM
Cc1ccc(NC(=O)C2(c3ccccc3C(C)C)CC(O)C2)c(OC(F)F)n1 (stereo not drawn) [Example 58, N-(2-(difluoromethoxy)-6-methylpyridin-3-yl)-3-hydroxy-1-(2-isopropylphenyl)cyclobutane-1-carboxamide]	100 to 1000 nM
CC(C)c1ccccc1C1(C(=O)Nc2ccc(Cl)cc2OC(F)F)CCOCC1 [Example 14, N-(4-chloro-2-(difluoromethoxy)phenyl)-4-(2-isopropylphenyl)tetrahydro-2H-pyran-4-carboxamide]	100 to 1000 nM
CC(C)c1ccccc1C1(C(=O)Nc2ccc(Cl)cn2)CC(O)(C(F)(F)C(=O)O)C1 (single isomer, unassigned) [Example 93-isomer B, 2-(3-((5-chloropyridin-2-y1)carbamoyl)-1-hydroxy-3-(2-isopropylphenyl)cyclobutyl)-2,2-difluoroacetic acid]	100 to 1000 nM
COc1ccc(NC(=O)C2(c3ccccc3C(C)C)CC(=O)N(C)C2)c(OC(F)F)n1 (single isomer, unassigned) [Example 1, N-(2-(difluoromethoxy)-6-methoxypyridin-3-yl)-3-(2-isopropylphenyl)-1-methyl-5-oxopyrrolidine-3-carboxamide]	10 to 100 nM
CC(C)c1ccccc1C1(C(=O)Nc2ccc(Cl)nc2OC(F)F)CNC(=O)C1 (stereo not drawn) [Example 108, N-(6-chloro-2-(difluoromethoxy)pyridin-3-yl)-3-(2-isopropylphenyl)-5-oxopyrrolidine-3-carboxamide]	10 to 100 nM
Cc1ccc(NC(=O)C2(c3ccccc3C(C)C)CC(F)(F)C2)c(OC(F)F)n1 [Example 61, N-(2-(difluoromethoxy)-6-methylpyridin-3-yl)-3,3-difluoro-1-(2-isopropylphenyl)cyclobutane-1-carboxamide]	> 1000 nM
COc1ccc(NC(=O)[C@]2(c3ccccc3C(C)C)C[C@@H](Cc3nnn[nH]3)C2)c(OC(F)F)n1 [Example 120, trans-3-((1H-tetrazol-5-yl)methyl)-N-(2-(difluoromethoxy)-6-methoxypyridin-3-yl)-1-(2-isopropylphenyl)cyclobutane-1-carboxamide]	< 10 nM
CCOCN1CC(C(=O)Nc2ncc(Cl)cc2OC(F)F)(c2ccccc2C(C)C)CC1=O (stereo not drawn) [Example 11, N-(5-chloro-3-(difluoromethoxy)pyridin-2-yl)-1-(ethoxymethyl)-3-(2-isopropylphenyl)-5-oxopyrrolidine-3-carboxamide]	100 to 1000 nM
